According to patent US20120225135A1 (priority 2010, published 2012):

Tests used:
[1] = test system: biofilm; conditions: cited from earlier work
[2] = Residual ClO2 after contact with effluents or tap water (amperometric titration); format: physicochemical; conditions: for Residual ClO2: trickling filters effluents
[3] = test system: Saccharomyces diastaticus (70 percent sporulated); assay: Microbiological effectiveness at cold temperatures; format: cell-based
[4] = test system: Escherichia coli, ATCC 11229; format: cell-based; conditions: pH 5
[5] = test system: Klebsiella terrigena, ATCC 33257; format: cell-based; conditions: pH 5
[6] = test system: E. coli; assay: Sanitation of fishing holds, E. coli; conditions: cleaned surface sprayed with 10 ppm ClO2 solution
Excerpt: Gross filth removed and washed in detergent
Cleaned surface sprayed with 10 ppm ClO2 solution

[7] = test system: Giardia muris cysts; conditions: in vivo
[8] = test system: Enterobacter Cloacae; assay: Microbiological effectiveness at cold temperatures; format: cell-based
[9] = test system: Total Plate Count (microbiological surface contamination)
[10] = test system: E-Coli Phage; assay: Disinfection of effluents, E. coli phage; format: cell-based; conditions: ClO2 dose 9.86 mg/L, 30 minutes
[11] = test system: Poliovirus type 1, ATCC VR-59; format: cell-based; conditions: pH 9
[12] = test system: E. coli
[13] = test system: Lactobacillus frigidus; assay: Microbiological effectiveness at cold temperatures; format: cell-based
[14] = test system: Streptococcus; assay: Disinfection of effluents, streptococcus; format: cell-based; conditions: trickling filters effluents
[15] = test system: Total Count; assay: Disinfection of effluents, total count; format: cell-based; conditions: effluents, ClO2 dose 9.86 mg/L, 30 minutes, pH initial 4.6, final 4.4

[O][Cl+][O-] [Chlorine Dioxide, chlorine dioxide]
detachment of biofilms [1]: very effective | ClO2 residual ([2]; effluent, ClO2 dose 5.2 mg/L, contact time 3½ hrs): 0.4 mg/L as ClO2 | ClO2 residual ([2]; effluent, ClO2 dose 5.2 mg/L, contact time 10 min): 1.9 mg/L as ClO2 | ClO2 residual ([2]; effluent, ClO2 dose 5.2 mg/L, contact time 30 min): 1.4 mg/L as ClO2 | ClO2 residual ([2]; effluent, ClO2 dose 5.2 mg/L, contact time 1 hr): 1.0 mg/L as ClO2 | ClO2 residual ([2]; effluent, ClO2 dose 5.2 mg/L, contact time 2 hrs): 0.8 mg/L as ClO2 | ClO2 residual ([2]; effluent, ClO2 dose 5.2 mg/L, contact time 24 hrs): 0 mg/L as ClO2 | ClO2 residual ([2]; effluents, ClO2 dose 7.84 mg/L, contact time 10 min): 3.0 mg/L as ClO2 | ClO2 residual ([2]; effluents, ClO2 dose 7.84 mg/L, contact time 30 min): 2.6 mg/L as ClO2 | ClO2 residual ([2]; effluents, ClO2 dose 7.84 mg/L, contact time 60 min): 2.1 mg/L as ClO2 | ClO2 residual ([2]; effluents, ClO2 dose 7.84 mg/L, contact time 1.5 hr): 1.9 mg/L as ClO2 | ClO2 residual ([2]; effluents, ClO2 dose 7.84 mg/L, contact time 2.5 hr): 1.5 mg/L as ClO2 | ClO2 residual ([2]; effluents, ClO2 dose 7.84 mg/L, contact time 3.5 hr): 1.0 mg/L as ClO2 | ClO2 residual ([2]; effluents, dose 19.2 mg/L, 20 minutes, pH initial 4, final 3.4): 4.66 mg/L as ClO2 | ClO2 residual ([2]; effluents, dose 19.2 mg/L, 20 minutes, pH initial 5, final 4.6): 4.37 mg/L as ClO2 | ClO2 residual ([2]; effluents, dose 19.2 mg/L, 20 minutes, pH initial 6, final 6.45): 4.95 mg/L as ClO2 | ClO2 residual ([2]; effluents, dose 19.2 mg/L, 20 minutes, pH initial 7.5, final 7.3): 3.84 mg/L as ClO2 | ClO2 residual ([2]; effluents, dose 19.2 mg/L, 20 minutes, pH initial 9, final 8.8): 1.27 mg/L as ClO2 | ClO2 residual ([2]; effluents, dose 19.2 mg/L, 20 minutes, pH initial 10, final 9.9): 0.11 mg/L as ClO2 | ClO2 residual ([2]; effluents, dose 37.5 mg/L, 20 minutes, pH initial 4.0, final 3.5): 25.84 mg/L as ClO2 | ClO2 residual ([2]; effluents, dose 37.5 mg/L, 20 minutes, pH initial 5.0, final 4.95): 26.88 mg/L as ClO2 | ClO2 residual ([2]; effluents, dose 37.5 mg/L, 20 minutes, pH initial 6.0, final 6.05): 24.20 mg/L as ClO2 | ClO2 residual ([2]; effluents, dose 37.5 mg/L, 20 minutes, pH initial 7.5, final 7.3): 25.27 mg/L as ClO2 | ClO2 residual ([2]; effluents, dose 37.5 mg/L, 20 minutes, pH initial 9, final 8.8): 15.13 mg/L as ClO2 | ClO2 residual ([2]; effluents, dose 37.5 mg/L, 20 minutes, pH initial 10, final 9.8): 5.23 mg/L as ClO2 | ClO2 residual ([2]; tap water with ammonium ion, nitrites, nitrates, neutral pH, dose 19.2 mg/L, 10 min): 0 mg/L as ClO2 | ClO2 residual ([2]; tap water with ammonium ion, nitrites, nitrates, neutral pH, dose 19.2 mg/L, 30 min): 0 mg/L as ClO2 | ClO2 residual ([2]; tap water with ammonium ion, nitrites, nitrates, neutral pH, dose 19.2 mg/L, 1 hr): 0.07 mg/L as ClO2 | ClO2 residual ([2]; tap water with ammonium ion, nitrites, nitrates, neutral pH, dose 19.2 mg/L, 3 hrs): 0.03 mg/L as ClO2 | ClO2 residual ([2]; tap water with ammonium ion, nitrites, nitrates, neutral pH, dose 19.2 mg/L, 24 hrs): 0.08 mg/L as ClO2 | Residual ClO2 ([2]; dose 2.7 mg/L, contact time 5 min): 0 mg/L as ClO2 | Residual ClO2 ([2]; dose 2.7 mg/L, contact time 20 min): 0 mg/L as ClO2 | Residual ClO2 ([2]; dose 2.7 mg/L, contact time 35 min): 0 mg/L as ClO2 | Residual ClO2 ([2]; dose 7.8 mg/L, contact time 5 min): 1.28 mg/L as ClO2 | Residual ClO2 ([2]; dose 7.8 mg/L, contact time 20 min): 1.03 mg/L as ClO2 | Residual ClO2 ([2]; dose 7.8 mg/L, contact time 35 min): 0.84 mg/L as ClO2 | Residual ClO2 ([2]; dose 10.8 mg/L, contact time 5 min): 3.10 mg/L as ClO2 | Residual ClO2 ([2]; dose 10.8 mg/L, contact time 20 min): 2.17 mg/L as ClO2 | Residual ClO2 ([2]; dose 10.8 mg/L, contact time 35 min): 2.07 mg/L as ClO2 | Deactivation (%) [3]: 99.999% | reduction in titer [4]: > 6 log 10 | reduction in titer [5]: > 6 log 10 | E. coli [6]: below level of detection | reduction of infectivity for mice [7]: > 3 log 10 | Deactivation (%) [8]: 99.999% | TPC at day zero [9]: less than 7×10^4 | E-Coli Phage ([10]; pH initial 4.6, final 4.4): 0 MPN per 100 ml | E-Coli Phage ([10]; pH initial 5.5, final 5.6): 0 MPN per 100 ml | E-Coli Phage ([10]; pH initial 6.5, final 6.7): 0 MPN per 100 ml | E-Coli Phage ([10]; pH initial 7.5, final 7.6): 0 MPN per 100 ml | E-Coli Phage ([10]; pH initial 8.2, final 8.1): 2 MPN per 100 ml | E-Coli Phage ([10]; pH initial 9.1, final 9.2): 79 MPN per 100 ml | E-Coli Phage ([10]; pH initial 10.0, final 10.0): 79 MPN per 100 ml | reduction in titer [11]: > 4 log 10 | E. coli on cut lettuce [12]: always zero | Deactivation (%) [13]: 99.999% | Streptococcus per 100 mL ([14]; ClO2 dose 2.7 mg/L, contact time 5 min): 8.4 × 10^7 per 100 mL | Streptococcus per 100 mL ([14]; ClO2 dose 2.7 mg/L, contact time 20 min): 2.4 × 10^7 per 100 mL | Streptococcus per 100 mL ([14]; ClO2 dose 10.8 mg/L, contact time 5 min): 2.7 × 10^5 per 100 mL | Streptococcus per 100 mL ([14]; ClO2 dose 10.8 mg/L, contact time 20 min): 8.0 × 10^3 per 100 mL | Total Count [15]: 5 MPN per 100 ml
